Test results from patent publication US11919856B2, “Compounds” (UCL BUSINESS LTD, priority 2018, dated 2024).

Assays:
Z α1-antitrypsin [1] = target: T1, Z α1-antitrypsin (Homo sapiens, UniProt P01009, E366K/V237A); assay: Stoichiometry of inhibition against chymotrypsin, Z α1-antitrypsin; format: biochemical; settings: Z α1-antitrypsin pre-incubated with compound
Experimental: Mutations that interfere with the opening of […] or that perturb its interaction with the N-terminal portion of the reactive centre loop alter the ability of serpins to inhibit target proteases. The stoichiometry of inhibition (SI) was determined for M and Z α1-antitrypsin in discontinuous experiments against a model target protease, chymotrypsin. The pre-incubation of both variants with Compound 1 led to a >98% loss of protease inhibitory activity. […] To investigate whether this activity was consistent with action as a chemical chaperone, M and Z α1-antitrypsin were unfolded in vitro into 6 M guanidine hydrochloride, and rapidly refolded by snap dilution into denaturant-free buffer in the presence or absence of Compound 1.

Z α1-antitrypsin [2] = target: T1, Z α1-antitrypsin; assay: Biochemical competition binding assay (TR-FRET), Z α1-antitrypsin; parameters: a random insertion of the human Z α1-antitrypsin gene; from tissue; host or cells: liver and plasma of Z α1-antitrypsin transgenic mice (human Z transgene); settings: competition binding with fluorescently labelled derivative; read-out: affinity (KD) to Z α1-antitrypsin
Experimental: Alpha1-antitrypsin was purified from the plasma of ZZ and MM α1-antitrypsin homozygotes as described in Lomas et al., Biochemistry. 1993; 32:500-8. Recombinant Cys232Ser α1-antitrypsin was expressed and purified as detailed in Irving et al. Methods Enzymol. 2011; 501:421-66 and Haq et al. Biosci Rep. 2013; 33(3):e00046.
A fluorescent derivative of compound 1 was prepared by derivatizing compound 1 at its ring nitrogen atom with an Alexa Fluor 488 label via a short organic linker group.
A serial dilution of test compounds in DMSO was diluted 25-fold with assay buffer, and 2.5 μl of this intermediate dilution transferred to a black, low-volume 384-well microtitre plate (Greiner BioOne; product no. 784076). […]
Plates were sealed and incubated overnight at room temperature, or for 3 days at 4° C. then 6 hours at room temperature. […] The TR-FRET signal was read on an Envision plate reader, by excitation of Terbium at 337 nm and detection of emission at 520 nm and 495 nm.
Dissociation constants (KD) for the affinity of compounds to Z-a1AT or M-a1AT protein were derived from the pIC50 values according to the Cheng-Prusoff equation, taking into account the concentration of fluorescent ligand used in relation to its affinity as determined in independent Fluorescence Polarisation and TR-FRET experiments: KD(compound)=10^−pIC50(compound)/([…]. Compound Association Experiments

[3] = target: T2, Z-alpha-1-antitrypsin (Z-A1AT) (Homo sapiens, UniProt P01009, E366K/V237A); assay: Inhibition of Z-alpha-1-antitrypsin polymerisation TR-FRET assay; format: biochemical; settings: mean, 5 nM Z-A1AT, 72 hours at 37° C.
T2 construct: Z-alpha-1-antitrypsin was purified from human plasma; from tissue; host or cells: human plasma of ZZ homozygous donors
T2 sequence (P01009 25-418 V237A/E366K): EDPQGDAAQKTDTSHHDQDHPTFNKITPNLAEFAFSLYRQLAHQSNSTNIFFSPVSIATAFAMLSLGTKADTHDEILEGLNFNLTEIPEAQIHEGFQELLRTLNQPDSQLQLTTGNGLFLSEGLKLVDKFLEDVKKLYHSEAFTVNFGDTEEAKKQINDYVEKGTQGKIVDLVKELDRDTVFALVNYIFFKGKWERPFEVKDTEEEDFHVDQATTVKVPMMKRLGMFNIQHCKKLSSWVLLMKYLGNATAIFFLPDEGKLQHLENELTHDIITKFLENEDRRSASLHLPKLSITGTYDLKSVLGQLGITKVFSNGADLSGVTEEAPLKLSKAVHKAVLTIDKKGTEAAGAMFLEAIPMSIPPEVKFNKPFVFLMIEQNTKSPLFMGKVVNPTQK
Source text: The potencies of the compounds of the invention for inhibition of Z-alpha-1-antitrypsin (Z-A1AT) polymerisation can be determined by a time-resolved fluorescence energy transfer (TR-FRET) assay performed on purified Z-A1AT as described herein. […] Mean activity data for the assay described below for compounds 1-4:
Inhibition of Z-Alpha-1-Antitrypsin Polymerisation Assay Protocol
Z-alpha-1-antitrypsin was purified from human plasma of donors homozygous for the Z-A1AT form. The purification was performed according to a published protocol (Lomas et al. Biochemistry 1993; 32:500-508) involving ammonium sulphate precipitation, thiol exchange fractionation, and anion exchange fractionation.
Purified Z-A1AT was diluted to 5 nM in PBS buffer with 0.01% Tween-20 and mixed with different concentrations of inhibitor compounds dissolved in DMSO, in 384-well assay plates. Following incubation for 72 hours at 37° C., the amount of Z-A1AT polymer was detected using a time-resolved fluorescence resonance energy transfer (TR-FRET) assay format, by adding an antibody detection mix to the assay plates. The detection mix contained an A1AT-polymer specific monoclonal antibody (Miranda et al. Hepatology 2010; 52: 1078-1088), Terbium-labelled anti-mouse antibody, a polyclonal rabbit anti-A1AT antibody, and an Alexa488-labelled anti-rabbit antibody. TR-FRET data were normalised to controls (DMSO vehicle control giving 0% inhibition, saturating concentrations of an active compound giving 100% inhibition), and IC50 values were derived by fitting 4-parameter logistic curves to the normalised data.
An antibody-based time-resolved fluorescence resonance energy transfer (TR-FRET) assay was used to monitor the polymerisation of 5 nM Z α1-antitrypsin following incubation with varying concentrations of compounds at 37° C. for 72 hours. This assay used the 2C1 monoclonal antibody that is specific to pathological polymers of α1-antitrypsin (Miranda et al. Hepatology 2010; 52: 1078-1088), a polyclonal antibody that binds to all forms of α1-antitrypsin, an anti-mouse IgG fluorescence donor (Eu-W1024) and an anti-rabbit IgG acceptor (APC).

Z α1-antitrypsin [4] = target: T1, Z α1-antitrypsin; assay: Secretion of Z α1-antitrypsin from iPSC-derived hepatocytes (ZZ genotype); format: cell-based; parameters: a random insertion of the human Z α1-antitrypsin gene; from tissue; host or cells: liver and plasma of Z α1-antitrypsin transgenic mice (human Z transgene)
Experimental: In order to confirm that the potency and efficacy of Compound 1 in CHO-TET-ON-Z-A1AT was a reasonable estimate of what could be expected in hepatocytes with endogenous levels of expression, the effect of Compound 1 on the secretion and polymerisation of Z α1-antitrypsin was measured in iPSC-derived hepatocytes with the ZZ α1-antitrypsin genotype (Yusa et al. Nature. 2011; 478:391-4).

Permeability = format: in vitro ADME
[5] = In vitro clearance in cryopreserved hepatocytes, human; format: in vitro ADME

T1 sequence (P01009 25-418 V237A/E366K): as above

CCC[C@@H](NC(=O)c1cccc2c1CC(=O)N2)[C@@H](O)c1cccc(F)c1C [Compound 1, N-[(1S,2R)-1-(3-fluoro-2-methylphenyl)-1-hydroxypentan-2-yl]-2-oxo-2,3-dihydro-1H-indole-4-carboxamide]
loss of protease inhibitory activity (Z α1-antitrypsin [1]): > 98%
Kd (Z α1-antitrypsin [2]): 1.5 nM
IC50 [3]: 5.01 nM
increase of secreted levels of Z α1-antitrypsin (Z α1-antitrypsin [4]): approximately 3 fold
EC50 (Z α1-antitrypsin [4]; read-out: pEC50, secretion of Z α1-antitrypsin (converted)): 316 nM
Permeability (Permeability): high
in vitro clearance in cryopreserved hepatocytes [5]: 0.3 ± 0.05 mL/min/g
